From ChEMBL document CHEMBL5614455, “Novel Azepino[4,5-b]indolone as cGAS Inhibitors for Treating Immune-Mediated Diseases” (ACS Med Chem Lett, 2024) come the findings set out here.

In this experiment the target is Cyclic GMP-AMP synthase (Homo sapiens, UniProt Q8N884). Description: Inhibition of full length his-tagged human recombinant cGAS extracted from Escherichia coli BL21 (DE3) incubated for 3 hrs by rapidfire 365 mass spectrometry analysis.
Chain of Cyclic GMP-AMP synthase (Q8N884 whole entry): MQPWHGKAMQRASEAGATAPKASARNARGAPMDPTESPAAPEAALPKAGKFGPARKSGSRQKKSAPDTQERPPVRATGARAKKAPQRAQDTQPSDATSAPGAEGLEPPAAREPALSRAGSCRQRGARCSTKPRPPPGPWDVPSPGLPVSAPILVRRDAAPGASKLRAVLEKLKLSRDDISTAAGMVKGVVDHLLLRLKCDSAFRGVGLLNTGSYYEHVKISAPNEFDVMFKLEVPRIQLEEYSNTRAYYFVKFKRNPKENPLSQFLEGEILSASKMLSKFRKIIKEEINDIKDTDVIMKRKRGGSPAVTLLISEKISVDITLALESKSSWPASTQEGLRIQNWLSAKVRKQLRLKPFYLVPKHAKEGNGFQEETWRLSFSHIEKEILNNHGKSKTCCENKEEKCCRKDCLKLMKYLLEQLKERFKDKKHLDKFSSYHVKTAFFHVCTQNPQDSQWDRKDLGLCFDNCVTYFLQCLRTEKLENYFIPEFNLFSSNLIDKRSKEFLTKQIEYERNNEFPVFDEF

In general, IC50 refers to the concentration that gives 50% inhibition. On to `Cn1ncc(-c2cc(Cl)c(Cl)c3[nH]c4c(c23)CC(=O)NCC4CC(=O)O)n1` (stereo unspecified), for which the concentration for half-maximal inhibition (IC50) stood at 5 nM.
Regarding `COCC[C@@H]1CNC(=O)[C@@H](C)c2c1[nH]c1c(Cl)c(Cl)cc(NCCO)c21`, the IC50 came to 8 nM.
Consider `COCCCOc1cc(Cl)c(Cl)c2[nH]c3c(c12)[C@H](C)C(=O)NCC3`, for which the IC50 came to 8 nM.
Under `C[C@@H]1C(=O)NCCc2[nH]c3c(Cl)c(Cl)cc(OCC#N)c3c21` stands 2 nM; under `CC(F)(F)C[C@@H]1CNC(=O)Cc2c1[nH]c1c(Cl)c(Cl)cc(CC#N)c21`, 8 nM.
As for `C[C@@H]1C(=O)NCCc2[nH]c3c(Cl)c(Cl)cc(OCCCO)c3c21`, the half-maximal inhibitory concentration (IC50) amounted to 7 nM.
